Assay results as given in patent US7230027B2, “Anti-first-pass effect compounds” (Bioavailability Systems, L.L.C., priority 1997, dated 2007).
Where two headings read alike, the source gives them in different places.

Experiments:
Human Cytochrome P450 [1] = experiment: Protocol C: human cytochrome P450-mediated biotransformation of terfenadine in human hepatic S9; format: biochemical
Description: Protocol C: Assessment of Human Cytochrome P450-Mediated Biotransformation
The process of preparing incubation mixtures begins by mixing 10 uL of ethanol or an ethanolic solution containing an inhibitor with 100 uL of 100 mg/mL bovine serum albumin (Sigma) dissolved in reaction buffer at room temperature. Reaction buffer is composed of 0.10 M sodium phosphate, 1.0 mM ethylenediaminetetraacetic acid, and 5.0 mM magnesium chloride, pH 7.4 (all reagents: Fisher Scientific). Inhibitory chemicals used were ketoconazole (Research Diagnostics, Inc.), miconazole, bergapten, xanthotoxin (previous three from Sigma), bergamotin, imperatorin, isopimpinellin, psoralen, angelicin (previous five from Indofine Chemical Company, Inc.), and fractions or precipitates resulting from Protocols A, A′, B, B′, or B″ above. When possible, final inhibitor concentrations were expressed in molarity by calculation from the weighed material or by interpolation from HPLC calibration curves prepared with reference materials; otherwise, concentrations are expressed as weight per volume. Reaction tubes are placed on ice in preparation for the manipulations that follow. Sufficient reaction buffer is added so that the final volume of each tube will be 500 uL, 5 uL of a 100-fold concentrate for generating reduced nicotinamide adenine dinucleotide phosphate is added (such that completed reaction mixture contains 1.0 mM nicotinamide adenine dinucleotide phosphate, 1 U/mL glucose-6-phosphate dehydrogenase, and 10 mM glucose-6-phosphate; all from Sigma), and then human hepatic S9 (Anatomic Gift Foundation) is thawed and added in sufficient amounts to cause readily detectable amounts of metabolites to be formed in control reactions (amount necessary varies among individuals, but 10 uL is typical).
The samples prepared above are readied for HPLC assessment using the protocol that follows. Each tube is vortex mixed and centrifuged for 10 min at setting 35, the resulting supernatant is transferred to a clean tube, and the liquid is evaporated using a Speed Vac apparatus. The residue in each tube is first dissolved in 40 uL 1:1 acetonitrile:water, 2.5 mL of acetonitrile is added, and the centrifuge-transfer-evaporate step just described is repeated.
Linear gradients are used for elution and are formed by mixing mobile phase A composed of water with mobile phase B composed of 0.025% (v/v) formic acid in acetonitrile (instrument: Hewlett Packard). The elution time, in minutes, the percentage of mobile phase B present in the mixed mobile phase, and the flow rate (mL/min) are as follows: 0, 10, 0.10; 2, 10, 0.10; 3.5, 10, 0.20; 4, 10, 0.25; 5, 10, 0.25; 30, 55, 0.25; 32, 98, 0.25; 33, 98, 0.40; 39.8, 98, 0.40; 40, 98, 0.25; 45, 10, 0.25; 45.25, 10, 0.20; 50, 10, 0.20; 50.25, 10, 0.10. The chromatographic column has dimensions of 150 mm length×2.1 mm internal diameter, is packed with a proprietary material (Prism, Keystone Scientific, Inc.), is protected with a 2 mm internal diameter column containing the same material and with a PTFE filter, and is maintained at 35+/−0.2° C. The dry sample residue is mixed with 60 uL of 1:1 acetonitrile:water followed by 40 uL water just prior to each 50.25 min run cycle. The column eluate from each 10 uL injection is monitored for fluorescence with excitation at 228 nm, emission at 291 nm, and bandpass filtration at 280 nm.

Human Cytochrome P450 [2] = experiment: Protocol C′: human cytochrome P450-mediated biotransformation of saquinavir in human hepatic S9; format: biochemical
Description: Protocol C′: Assessment of Human Cytochrome P450-Mediated Biotransformation
The process of preparing incubation mixtures begins by mixing 10 uL of ethanol (control reactions) or an ethanolic solution containing an inhibitor with 100 uL of 100 mg/mL bovine serum albumin (Sigma) dissolved in reaction buffer at room temperature. Reaction buffer is composed of 0.10 M sodium phosphate, 1.0 mM ethylenediaminetetraacetic acid, and 5.0 mM magnesium chloride, pH 7.4 (all reagents: Fisher Scientific). […] Sufficient reaction buffer is added so that the final volume of each tube will be 500 uL, 5 uL of a 100-fold concentrate for generating reduced nicotinamide adenine dinucleotide phosphate is added (such that completed reaction mixture contains 1.0 mM nicotinamide adenine dinucleotide phosphate, 1 U/mL glucose-6-phosphate dehydrogenase, and 10 mM glucose-6-phosphate; all from Sigma), and then human hepatic S9 (Anatomic Gift Foundation) is thawed and added in sufficient amounts to cause readily detectable amounts of metabolites to be formed in control reactions (amount necessary varies among individuals, but 10 uL is typical). […]
The samples prepared above are readied for HPLC assessment using the protocol that follows. […]

[3] = oral tablet; cited from earlier work
[4] = heart transplant patients, cyclosporin co-administered with ketoconazole; cited from earlier work
[5] = protocol not given, Protocol C or C′

| first-pass effect inhibition, determined herein (Human Cytochrome P450 [1]) | SMILES | first-pass effect inhibition, determined herein (Human Cytochrome P450 [1]; [5]) | further results |
| --- | --- | --- | --- |
| ineffective | C/C(=C\COc1ccc2ccc(=O)oc2c1)CC[C@@H](O)C(C)(C)O [marmin] | – | – |
| ineffective | CC(=CCOc1c2ccoc2cc2oc(=O)ccc12)CCC(O)C(C)(C)O (centres unmarked) [6′,7′-dihydroxybergamottin] | – | – |
| ineffective | CC(C)=CCC/C(C)=C/COc1c2ccoc2cc2oc(=O)ccc12 [bergamottin] | – | first-pass inhibition (generation of saquinavir metabolites in presence of inhibitor) (Human Cytochrome P450 [2]): essentially ineffective |

Continued, compound first:

| SMILES | first-pass effect inhibition, determined herein (Human Cytochrome P450 [1]) | first-pass effect inhibition, determined herein (Human Cytochrome P450 [1]; [5]) | further results |
| --- | --- | --- | --- |
| O=c1ccc2cc3ccoc3cc2o1 [psoralen] | – | ineffective | – |
| CC(C)=CCOc1c2occc2cc2ccc(=O)oc12 [imperatorin] | – | ineffective | first-pass inhibition (generation of saquinavir metabolites in presence of inhibitor) (Human Cytochrome P450 [2]; Protocol C′, human hepatic S9, FIG. 1): essentially ineffective |
| CC(C)(C)c1ccc(C(O)CCCN2CCC(C(O)(c3ccccc3)c3ccccc3)CC2)cc1 (centres unmarked) [terfenadine] | – | – | part of a tablet given by mouth quickly changed to metabolites [3]: 99.5% |
| CC(=O)N1CCN(c2ccc(OCC3COC(Cn4ccnc4)(c4ccc(Cl)cc4Cl)O3)cc2)CC1 (centres unmarked) [ketoconazole] | – | – | reduction of the dose of cyclosporin required [4]: approximately 85% |
| COc1c2ccoc2c(OC)c2oc(=O)ccc12 [isopimpinellin] | ineffective | – | – |
| O=c1ccc2ccc3occc3c2o1 [angelicin] | – | ineffective | – |
